# Data: patent US7183112B2, “Uses for anti-malarial therapeutic agents” (APT Pharmaceuticals, LLC, priority 1999, dated 2007)
# Several values for one entry are separate records, joined by “and”; a condition that tells them apart may be missing. Equal entries are not always repeated.
# Key:
# [1] = tested on: Ascaris-sensitized sheep; assay: Airway responsiveness to inhaled carbachol (PC400), Examples 1-2; format: in vivo; conditions: for ORC #2 (24 P-Ag.) (carbachol reactivity, PC 400) / ORC #1 BSLN. (carbachol reactivity, PC 400): Example 2, aerosol 40 mg b.i.d. (2 mg/kg/day); for ORC #2 (24 P-Ag.) (carbachol reactivity, PC 400): 24 hour post-antigen challenge; for ORC #1 BSLN. (carbachol reactivity, PC 400): baseline
# Procedure: Dose Response Curves to Inhaled Carbachol: For the carbachol dose response curves, measurements of SRL were repeated immediately after inhalation of buffer and after each administration of 10 breaths of increasing concentrations of carbachol solution (0.25%, 0.5%, 1.0%, 2.0% and 4.0% w/v). To assess airway responsiveness, the cumulative carbachol dose in breath units (BU) that increased SRL 400% over the post-buffer value (i.e. PC400) was calculated from the dose response curve. One breath unit was defined as one breath of a 1% w/v carbachol solution.
# At 3 to 4 days before treatment was begun, baseline airway responsiveness, to aerosol carbachol (i.e., PC400) was determined and a baseline bronchial biopsy performed. […] The animals were treated two times a day for 3 days and then, on the fourth day, at 0.5 hours before antigen challenge and again at 4 hours after challenge. On the antigen-challenge day, SRL was measured and the animals were than treated with HCQ designated compound. SRL was remeasured 0.5 h after treatment (just before challenge) and the animals were then challenged with antigen. SRL was then remeasured immediately after.
# On the fourth day, they received an additional treatment one-half hour prior to antigen challenge.
# [2] = tested on: Ascaris-sensitized sheep; assay: Airway hyperresponsiveness to carbachol (post/pre challenge PC400 ratio), Example 3; format: in vivo
# Procedure: Dose Response Curves to Inhaled Carbachol: For the carbachol dose response curves, measurements of SRL were repeated immediately after inhalation of buffer and after each administration of 10 breaths of increasing concentrations of carbachol solution (0.25%, 0.5%, 1.0%, 2.0% and 4.0% w/v). To assess airway responsiveness, the cumulative carbachol dose in breath units (BU) that increased SRL 400% over the post-buffer value (i.e. PC400) was calculated from the dose response curve. One breath unit was defined as one breath of a 1% w/v carbachol solution. The same basic protocol was used for all studies in Example 3. This basic protocol consisted of first obtaining baseline dose response curves to aerosol carbachol 1–3 days prior to antigen challenge. Then, on the day of antigen challenge, values of specific lung resistance (SRL) were measured at baseline and, then, 30 min after drug or vehicle (0.9% saline) treatment. The animals were, then, challenged with Ascaris suum antigen and SRL was remeasured immediately after challenge, hourly from 1–6 h after challenge and on the half-hour from 6 ½–8 h after challenge. Measurements of SRL were obtained 24 h after challenge followed by the 24 h post challenge dose response curve. Studies differed in time of treatment, treatment dose or route of administration. […] A second control challenge was done 2 weeks after the drug trial to insure that the 4 day treatment regimen had no carry-over effect. […] A second control challenge was done 2 weeks after the drug trial to insure that the 4 day treatment regimen had no carry-over effect. […] A second; control challenge was done 2 weeks after the drug trial to insure that the 4 day treatment regimen had no carry-over effect. […] Challenges were separated by 2 weeks. […] On the 15th day, the animals were treated and 30 min later, challenged with antigen. On the following day, after determining the post challenge PC400, the animals resumed treatment for another 14 days, after which, they were challenged with antigen (day 29). The animals were then left untreated for 14 days, after which an antigen challenge was conducted (day 43) and, then, this procedure was repeated after another 2 weeks (day 57). For each series, a repeated measures analysis of variance was performed to see if there were overall differences between the historical control the drug trial and the 2 week follow-up control or, in the case of experiments described in series 4 and 5, amongst the doses and different times, respectively. If a significant overall effect was found, then a two-tailed paired t-test were used to assess pairwise differences. The variables assessed were the peak early airway response (maximum increase in SRL 0–4 h after challenge), peak late airway response (maximum increase in SRL between 5–8 h after antigen challenge, irrespective of when this increase occurred for each sheep in each trial) and on the ratio of post challenge PC400 to pre challenge PC400. (Note: a ratio close to 1 indicates no airway hyperresponsiveness, whereas, a ratio close to 0.5 indicates the development of airway hyperresponsiveness.). Peak responses were used because they are the most conservative estimate of the overall effect. Values in the text and figures are mean±se for 3 sheep.
structure (smiles),measurement,setting,value
"CCN(CCO)CCCC(C)Nc1ccnc2cc(Cl)ccc12 (stereo not shown) [HCQ, hydroxychloroquine]","ORC #2 (24 P-Ag.) (carbachol reactivity, PC 400)",[1]; Mean of 2 sheep,15.82 breath units
same,"ORC #2 (24 P-Ag.) (carbachol reactivity, PC 400)",[1]; individual sheep,15.86 breath units and 15.77 breath units
same,"ORC #1 BSLN. (carbachol reactivity, PC 400)",[1]; Mean of 2 sheep,12.74 breath units
same,"ORC #1 BSLN. (carbachol reactivity, PC 400)",[1]; individual sheep,10.65 breath units and 14.83 breath units
same,effect on bronchial hyperresponsiveness,"[1]; inhaled (nebulized), twenty-four hours later, summary of animal studies",continued effect at blocking
same,effect on airway hyperresponsiveness (AHR),[2]; aerosol 1 mg/kg twice a day for 4 days,protection
same,effect on antigen-induced AHR,[2]; aerosol 2 mg/kg once a day for 4 days,protection
same,effect on antigen-induced AHR,"[2]; chronic treatment, aerosol 2 mg/kg once a day for up to 4 weeks",protection
same,effect on antigen-induced AHR,"[2]; dose response, aerosol 0.2, 0.6 and 2 mg/kg once a day for 4 days",protection
same,effect on antigen-induced AHR,[2]; p.o. 1 mg/kg twice a day for 4 days,did not protect
